Laboratory results reported in ChEMBL document CHEMBL4382231, “Chemical preparation, biological evaluation and 3D-QSAR of ethoxysulfuron derivatives as novel antifungal agents targeting acetohydroxyacid synthase” (Eur J Med Chem, 2019).
≈ marks a conversion by molar mass, not a printed value. Calls of active or inactive are those of the source. The rule behind the calls is not given here.

Columns and labels:
[1] = Inhibition of Candida albicans AHAS catalytic subunit using pyruvate as substrate measured after 30 mins by colorimetric method
Candida albicans [2] = assay: Antifungal activity against Candida albicans SC5314 cultured in YNB media after 24 hrs by broth microdilution method; assay type: functional; details: SC5314, 24 h
Candida albicans [3] = assay: Antifungal activity against Candida albicans SC5314 cultured in YNB media after 48 hrs by broth microdilution method; assay type: functional
Candida albicans [4] = assay: Antifungal activity against Candida albicans SC5314 cultured in YNB media after 72 hrs by broth microdilution method; assay type: functional
Candida albicans [5] = assay: Antifungal activity against fluconazole-resistant Candida albicans isolate 17 cultured in YNB media after 24 hrs by broth microdilution method; assay type: functional
Candida albicans [6] = assay: Antifungal activity against fluconazole-resistant Candida albicans isolate 17 cultured in YNB media after 48 hrs by broth microdilution method; assay type: functional
Candida albicans [7] = assay: Antifungal activity against fluconazole-resistant Candida albicans isolate 17 cultured in YNB media after 72 hrs by broth microdilution method; assay type: functional
Candida albicans [8] = assay: Antifungal activity against fluconazole-resistant Candida albicans isolate g5 cultured in YNB media after 24 hrs by broth microdilution method; assay type: functional
Candida albicans [9] = assay: Antifungal activity against fluconazole-resistant Candida albicans isolate g5 cultured in YNB media after 48 hrs by broth microdilution method; assay type: functional
Candida albicans [10] = assay: Antifungal activity against fluconazole-resistant Candida albicans isolate g5 cultured in YNB media after 72 hrs by broth microdilution method; assay type: functional
Saccharomyces cerevisiae [11] = assay: Antifungal activity against Saccharomyces cerevisiae SC XH1549 cultured in YNB media after 24 hrs by broth microdilution method; assay type: functional; details: SC XH1549, 24 h
Saccharomyces cerevisiae [12] = assay: Antifungal activity against Saccharomyces cerevisiae SC XH1549 cultured in YNB media after 48 hrs by broth microdilution method; assay type: functional
Saccharomyces cerevisiae [13] = assay: Antifungal activity against Saccharomyces cerevisiae SC XH1549 cultured in YNB media after 72 hrs by broth microdilution method; assay type: functional
Candida parapsilosis [14] = assay: Antifungal activity against Candida parapsilosis ATCC 22019 cultured in YNB media after 24 hrs by broth microdilution method; assay type: functional; details: Lodderomyces parapsilosis, ATCC 22019, 24 h
Candida parapsilosis [15] = assay: Antifungal activity against Candida parapsilosis ATCC 22019 cultured in YNB media after 48 hrs by broth microdilution method; assay type: functional
Candida parapsilosis [16] = assay: Antifungal activity against Candida parapsilosis ATCC 22019 cultured in YNB media after 72 hrs by broth microdilution method; assay type: functional
Candida albicans [17] = assay: Antifungal activity against Candida albicans SC5314 infected in Caenorhabditis elegans assessed as mortality at 20 nM after 24 hrs by propidium iodide staining based fluorescence microscopic analysis (reference value: 17%); assay type: functional
Candida albicans [18] = assay: Antifungal activity against Candida albicans SC5314 cultured in RPMI 1640 media after 24 hrs by broth microdilution method; assay type: functional; details: SC5314, 24 h
[19] = Toxicity in po dosed rat; assay type: organism-based; details: in vivo
[20] = Toxicity in topically applied rabbit; set-up: species or system Oryctolagus cuniculus; details: in vivo, topical or ocular
Candida albicans [21] = assay: Ratio of MIC for Candida albicans SC5314 cultured in RPMI 1640 media to MIC for Candida albicans SC5314 cultured in YNB media; assay type: functional
[22] = Lodderomyces parapsilosis, ATCC 22019, 48 h
[23] = Lodderomyces parapsilosis, ATCC 22019, 72 h

Row | Compound | Ki [1] [µM] | MIC (Candida albicans [2]) [µg/mL] | MIC (Saccharomyces cerevisiae [11]) [µg/mL] | MIC (Saccharomyces cerevisiae [12]; SC XH1549, 48 h) [µg/mL] | MIC (Saccharomyces cerevisiae [13]; SC XH1549, 72 h) [µg/mL] | MIC (Candida parapsilosis [14]) [µg/mL] | MIC (Candida parapsilosis [15]; [22]) [µg/mL] | MIC (Candida parapsilosis [16]; [23]) [µg/mL] | pKi [1] | MIC (Candida albicans [18]) [µg/mL] | further results
1 | CCOC(=O)c1ccccc1OS(=O)(=O)NC(=O)Nc1nc(OC)cc(OC)n1 | 0.0063 | 1.25 (≈ 2.93 µM) | 2.5 (≈ 5.86 µM) | 5 (≈ 11.7 µM) | 5 (≈ 11.7 µM) | 1.25 (≈ 2.93 µM) | 2.5 (≈ 5.86 µM) | 2.5 (≈ 5.86 µM) | – | – | MIC (Candida albicans [3]; SC5314, 48 h): 2.5 µg/mL (≈ 5.86 µM); MIC (Candida albicans [4]; SC5314, 72 h): 2.5 µg/mL (≈ 5.86 µM); MIC (Candida albicans [5]; isolate 17, 24 h): 2.5 µg/mL (≈ 5.86 µM); MIC (Candida albicans [6]; isolate 17, 48 h): 5 µg/mL (≈ 11.7 µM); MIC (Candida albicans [7]; isolate 17, 72 h): 5 µg/mL (≈ 11.7 µM); MIC (Candida albicans [8]; isolate g5, 24 h): 2.5 µg/mL (≈ 5.86 µM); MIC (Candida albicans [9]; isolate g5, 48 h): 2.5 µg/mL (≈ 5.86 µM); MIC (Candida albicans [10]; isolate g5, 72 h): 2.5 µg/mL (≈ 5.86 µM)
2 | CCOc1ccccc1OS(=O)(=O)NC(=O)Nc1nc(OC)cc(OC)n1 [ETHOXYSULFURON] | 0.0216 | 0.625 (≈ 1.57 µM) | 5 (≈ 12.6 µM) | 5 (≈ 12.6 µM) | 5 (≈ 12.6 µM) | 1.25 (≈ 3.14 µM) | 2.5 (≈ 6.28 µM) | 2.5 (≈ 6.28 µM) | 7.66 | 12.5 (≈ 31.4 µM) | Activity (Candida albicans [17]): 3%; MIC (Candida albicans [3]; SC5314, 48 h): 1.25 µg/mL (≈ 3.14 µM); MIC (Candida albicans [4]; SC5314, 72 h): 1.25 µg/mL (≈ 3.14 µM); MIC (Candida albicans [5]; isolate 17, 24 h): 1.25 µg/mL (≈ 3.14 µM); MIC (Candida albicans [6]; isolate 17, 48 h): 2.5 µg/mL (≈ 6.28 µM); MIC (Candida albicans [7]; isolate 17, 72 h): 2.5 µg/mL (≈ 6.28 µM); MIC (Candida albicans [8]; isolate g5, 24 h): 1.25 µg/mL (≈ 3.14 µM); MIC (Candida albicans [9]; isolate g5, 48 h): 1.25 µg/mL (≈ 3.14 µM); MIC (Candida albicans [10]; isolate g5, 72 h): 2.5 µg/mL (≈ 6.28 µM)
3 | C[C@@H]1[C@H](O)[C@@H](C)/C=C/C=C/C=C/C=C/C=C/C=C/C=C/[C@H](O[C@@H]2O[C@H](C)[C@@H](O)[C@H](N)[C@@H]2O)C[C@@H]2O[C@](O)(C[C@@H](O)C[C@@H](O)[C@H](O)CC[C@@H](O)C[C@@H](O)CC(=O)O[C@H]1C)C[C@H](O)[C@H]2C(=O)O [AMPHOTERICIN B] | – | – | 2.5 (≈ 2.71 µM) | 2.5 (≈ 2.71 µM) | 2.5 (≈ 2.71 µM) | 2.5 (≈ 2.71 µM) | 2.5 (≈ 2.71 µM) | 2.5 (≈ 2.71 µM) | – | 1.56 (≈ 1.69 µM) | –
4 | OC(Cn1cncn1)(Cn1cncn1)c1ccc(F)cc1F [FLUCONAZOLE] | – | 0.25 (≈ 0.816 µM) | 0.25 (≈ 0.816 µM) | – | – | 0.25 (≈ 0.816 µM) | – | – | – | 0.25 (≈ 0.816 µM) | Activity (Candida albicans [17]): 5%; MIC (Candida albicans [3]): inactive; MIC (Candida albicans [4]): inactive; MIC (Candida albicans [5]): inactive; MIC (Candida albicans [6]): inactive; MIC (Candida albicans [7]): inactive; MIC (Candida albicans [8]): inactive; MIC (Candida albicans [9]): inactive; MIC (Candida albicans [10]): inactive; MIC (Saccharomyces cerevisiae [12]): inactive; MIC (Saccharomyces cerevisiae [13]): inactive; MIC (Candida parapsilosis [15]): inactive; MIC (Candida parapsilosis [16]): inactive
5 | CCOC(=O)c1ccccc1S(=O)(=O)NC(=O)Nc1nc(Cl)cc(OC)n1 [CHLORIMURON ETHYL] | – | – | – | – | – | – | – | – | – | – | LD50 [19]: > 4000 mg/kg; Activity (Candida albicans [17]): 8%; LD50 [20]: > 2000 mg/kg
6 | CCOc1ccccc1OS(=O)(=O)[N-]C(=O)Nc1nc(OC)cc(OC)n1.[Na+] | 0.0221 | 0.625 | 5 | 5 | 5 | 1.25 | 2.5 | 2.5 | – | – | MIC (Candida albicans [3]; SC5314, 48 h): 1.25 µg/mL; MIC (Candida albicans [4]; SC5314, 72 h): 1.25 µg/mL; MIC (Candida albicans [5]; isolate 17, 24 h): 1.25 µg/mL; MIC (Candida albicans [6]; isolate 17, 48 h): 2.5 µg/mL; MIC (Candida albicans [7]; isolate 17, 72 h): 2.5 µg/mL; MIC (Candida albicans [8]; isolate g5, 24 h): 1.25 µg/mL; MIC (Candida albicans [9]; isolate g5, 48 h): 1.25 µg/mL; MIC (Candida albicans [10]; isolate g5, 72 h): 2.5 µg/mL
7 | COc1cc(OC)nc(NC(=O)[N-]S(=O)(=O)Oc2ccccc2OCCI)n1.[Na+] | 0.125 | 2.5 | 80 | > 80 | > 80 | 5 | 20 | 20 | 6.9 | 50 | Ratio IC50 (Candida albicans [21]): 20; MIC (Candida albicans [3]; SC5314, 48 h): 5 µg/mL; MIC (Candida albicans [4]; SC5314, 72 h): 10 µg/mL; MIC (Candida albicans [5]; isolate 17, 24 h): 5 µg/mL; MIC (Candida albicans [6]; isolate 17, 48 h): 10 µg/mL; MIC (Candida albicans [7]; isolate 17, 72 h): 20 µg/mL; MIC (Candida albicans [8]; isolate g5, 24 h): 5 µg/mL; MIC (Candida albicans [9]; isolate g5, 48 h): 10 µg/mL; MIC (Candida albicans [10]; isolate g5, 72 h): 20 µg/mL
8 | COc1cc(Br)nc(NC(=O)[N-]S(=O)(=O)Oc2ccccc2OCCCl)n1.[Na+] | 0.069 | > 100 | – | – | – | – | – | – | 7.13 | > 100 | –
9 | COC(=O)c1ccccc1OS(=O)(=O)[N-]C(=O)Nc1nc(I)cc(OC)n1.[Na+] | 0.066 | > 100 | – | – | – | – | – | – | 7.18 | > 100 | –
10 | CCOC(=O)c1ccccc1OS(=O)(=O)[N-]C(=O)Nc1nc(OC)cc(OC)n1.[Na+] | 0.0067 | 1.25 | 2.5 | 5 | 5 | 1.25 | 2.5 | 2.5 | 8.17 | 25 | Activity (Candida albicans [17]): 7%; Ratio IC50 (Candida albicans [21]): 20; MIC (Candida albicans [3]; SC5314, 48 h): 2.5 µg/mL; MIC (Candida albicans [4]; SC5314, 72 h): 2.5 µg/mL; MIC (Candida albicans [5]; isolate 17, 24 h): 2.5 µg/mL; MIC (Candida albicans [6]; isolate 17, 48 h): 5 µg/mL; MIC (Candida albicans [7]; isolate 17, 72 h): 5 µg/mL; MIC (Candida albicans [8]; isolate g5, 24 h): 2.5 µg/mL; MIC (Candida albicans [9]; isolate g5, 48 h): 2.5 µg/mL; MIC (Candida albicans [10]; isolate g5, 72 h): 2.5 µg/mL
11 | Cc1cc(Cl)nc(NC(=O)[N-]S(=O)(=O)Oc2ccccc2OCCI)n1.[Na+] | 0.885 | > 100 | – | – | – | – | – | – | 6.05 | > 100 | –
12 | Cc1cc(C)nc(NC(=O)[N-]S(=O)(=O)Oc2ccc([N+](=O)[O-])cc2)n1.[Na+] | 5.66 | > 100 | – | – | – | – | – | – | 5.24 | > 100 | –
13 | COc1cc(OC)nc(NC(=O)[N-]S(=O)(=O)Oc2ccccc2C(=O)OCC(F)(F)F)n1.[Na+] | 0.078 | 10 | – | – | – | – | – | – | 7.11 | > 100 | –
14 | Cc1cc(C)nc(NC(=O)[N-]S(=O)(=O)Oc2ccccc2OCCI)n1.[Na+] | 3.57 | > 100 | – | – | – | – | – | – | 5.45 | > 100 | –
15 | Cc1cc(Cl)nc(NC(=O)[N-]S(=O)(=O)Oc2ccccc2OCCCl)n1.[Na+] | 0.095 | > 100 | – | – | – | – | – | – | 7.02 | > 100 | –
16 | COc1cc(Br)nc(NC(=O)[N-]S(=O)(=O)Oc2ccccc2[N+](=O)[O-])n1.[Na+] | 0.247 | > 100 | – | – | – | – | – | – | 6.6 | > 100 | –
17 | CCOC(=O)c1ccccc1OS(=O)(=O)[N-]C(=O)Nc1nc(C)cc(Cl)n1.[Na+] | 0.0371 | > 100 | – | – | – | – | – | – | 7.43 | > 100 | –
18 | Cc1cc(Cl)nc(NC(=O)[N-]S(=O)(=O)Oc2ccccc2C(=O)OCCCl)n1.[Na+] | 0.761 | > 100 | – | – | – | – | – | – | 6.09 | > 100 | –
19 | COc1cc(OC)nc(NC(=O)[N-]S(=O)(=O)Oc2ccccc2C(=O)OCCI)n1.[Na+] | 0.095 | > 100 | – | – | – | – | – | – | 7.02 | > 100 | –
20 | COc1cc(C)nc(NC(=O)[N-]S(=O)(=O)Oc2ccc([N+](=O)[O-])cc2)n1.[Na+] | > 50 | > 100 | – | – | – | – | – | – | – | > 100 | –
